Efflux ratio, Papp A→B and Papp B→A data for one compound are collected here from US9670161B2, “5-fluoro-N-(pyridin-2-yl)pyridin-2-amine derivatives containing a sulfone group” (BAYER PHARMA AKTIENGESELLSCHAFT, priority 2012, dated 2017).

The series in a line: Caco-2 permeation assay. Conditions: human, pH 7.2. The format is in vitro ADME. Here is the method:
4. Caco-2 Permeation Assay:
Caco-2 cells (purchased from DSMZ Braunschweig, Germany) were seeded at a density of 4.5×10^4 cells per well on 24 well insert plates, 0.4 μm pore size, and grown for 15 days in DMEM medium supplemented with 10% fetal bovine serum, 1% GlutaMAX (100×, GIBCO), 100 U/mL penicillin, 100 μg/mL streptomycin (GIBCO) and 1% non essential amino acids (100×). Cells were maintained at 37° C. in a humified 5% CO2 atmosphere. Medium was changed every 2-3 day. Before running the permeation assay, the culture medium was replaced by a FCS-free hepes-carbonate transport buffer (pH 7.2). For assessment of monolayer integrity the transepithelial electrical resistance (TEER) was measured. Test compounds were predissolved in DMSO and added either to the apical or basolateral compartment in final concentration of 2 μM in transport buffer. Before and after 2 h incubation at 37° C. samples were taken from both compartments. Analysis of compound content was done after precipitation with methanol by LC/MS/MS analysis. Permeability (Papp) was calculated in the apical to basolateral (A→B) and basolateral to apical (B→A) directions. The apparent permeability was calculated using following equation: Papp=(Vr/Po)(1/S)(P2/t)
Where Vr is the volume of medium in the receiver chamber, Po is the measured peak area or height of the test drug in the donor chamber at t=o, S the surface area of the monolayer, P2 is the measured peak area of the test drug in the acceptor chamber after 2 h of incubation, and t is the incubation time. The efflux ratio basolateral (B) to apical (A) was calculated by dividing the Papp B-A by the Papp A-B. In addition the compound recovery was calculated. The following reference compounds were used for the classification of the permeability class: Antipyrine, Pyrazosin, Verapamil, Fluvastatin, Cimetidine, Ranitidine, Atenolol, Sulfasalazine.
On the technique in general: Caco-2 cells form a polarised layer with tight junctions and transporters.

Where [1] appears, read: Caco-2 monolayer, 2 μM test compound, 2 h.

By efflux ratio is commonly meant the permeability from basolateral to apical divided by that in the opposite direction, in the common usage. As usually defined, the Papp A→B is how fast a substance crosses the layer from the apical side. Read a low Papp A→B as slow passage. A word on the Papp B→A: it is how fast a substance crosses the layer from the basolateral side.

Consider `COc1cc(F)ccc1-c1cc(Nc2cc(CS(C)(=O)=O)ccn2)ncc1F` [Example 1, 5-Fluoro-4-(4-fluoro-2-methoxyphenyl)-N-{4-[(methylsulfonyl)methyl]pyridin-2-yl}pyridin-2-amine], for which the efflux ratio at 2 h, 2 μM (Papp B-A / Papp A-B, Caco-2, 2 μM test compound) stood at 0.49. For the same compound, under setting [1], the Papp A→B at 2 h, 2 μM turned out to be 20.7 ×10⁻⁶ cm/s and the apparent permeability from basolateral to apical (Papp B→A) at 2 h, 2 μM came out at 10.1 ×10⁻⁶ cm/s.
